Reference: patent EP0516186A2, “Nucleosides and nucleoside analogues, pharmaceutical composition and processes for the preparation of the compounds” (priority 1987, dated 1988)

How the values were obtained:
Type in all cases: cell-based
HIV (HTLV-IIIB) = assay: Effect on HIV in H9 cells (frequency of HIV antigen containing cells, immunofluorescence); conditions: Human immunodeficiency virus 1; H9 cells exposed to HIV (HTLV-IIIB), incubated 6 - 7 days; read-out: Concentration (µM) for 50 % inhibition (IC₅₀) of human immuno deficiency virus multiplication in cell culture
Procedure: Test I. Effect of compounds of the formula I on HIV in H9 cells
Materials and methods: HIV infection of H9 cells
H9 cells, 10⁵ cells per well on a 24 well plate, suspended in 2 ml RPMI-medium containing 10 % fetal calf serum, 100 µg/ml penicillin, 10 µg/ml streptomycin sulfate and 2 µg/ml polybrene are exposed to HIV (HTLV-IIIB) and different concentrations of the test compounds. The plates are incubated at 37°C in 5 % CO₂ for 6 - 7 days. The contents in each well is then homogenized with a pipette and transferred to a centrifuge tube. After centrifugation for 10 min at 1500 rpm the supernatent is removed and the cell pellet is analyzed by fixing in methanol on glass plates. Human HIV positive serum diluted 1:80 or 1:160 is added and incubated for 30 min at 37°. The plate is then washed with phosphate-buffered saline (PBS) containing Ca²⁺ and Mg²⁺. Sheep antihuman conjugate (FITC) is added and after a new incubation the plate is again washed with PBS. Contrast staining is done with Evans blue and after drying the frequency of HIV antigen containing cells is determined in a microscope.

[1] = Cellular toxicity in F5000 cells (cell multiplication); conditions: F5000 human embryo cells, number of cells after 48 hrs; 50 % inhibition of cell multiplication; read-out: TC₅₀(µM) F5000
Procedure: (§1) Test II. Cellular toxicity
(§2) F5000 cells, which are human embryo cells, 1x10⁵ cells per plate, are incubated in Eagle's minimal essential medium, supplemented with Earle's salts, non-essential amino acids, 10 % fetal calf serum, 10 mM hepes, 70 mg/l penicillin and 100 mg/l streptomycin, in absence or presence of test compounds. The number of cells per plate is determined after 48 hrs. Cells incubated in absence of test compounds underwent one cell division cycle. The results are given as TC₅₀, which is the concentration of a compound which gives 50 % inhibition of cell multiplication.

[2] = Cellular toxicity in H9 cells (cell multiplication); conditions: human, number of cells after 48 hrs, 50 % inhibition of cell multiplication, read-out: TC₅₀(µM) H9
Procedure: as §1
H₉ cells, 2x10⁷ cells per plate, are incubated in RPMI-1640 medium containing 10 % fetal calf serum, 70 mg/l penicillin, 100 mg/l streptomycin and 10 mM hepes, in absence or precence of test compounds. The number of cells per plate is determined after 48 hrs. Cells incubated in absence of test compound then underwent two cell division cycles.
as §2

Row | IC50 (HIV (HTLV-IIIB)) [µM] | SMILES | CC50 at 48 h [1] [µM] | CC50 at 48 h [2] [µM]
1 | 2.5 | CCCc1cn([C@@H]2C[C@H](F)[C@@H](CO)O2)c(=O)[nH]c1=O [VSA 409, 1-(3-F-2,3-dideoxy-α-D-ribofuranosyl)-5-propyluracil] |  | 
2 |  | Cc1cn([C@@H]2C[C@H](F)[C@@H](CO)O2)c(=O)[nH]c1=O [VSA 419, 1-(3-F-2,3-dideoxy-α-D-ribofuranosyl)thymine] | 250 | 
3 | 0.1 | CCc1cn([C@@H]2C[C@H](F)[C@@H](CO)O2)c(=O)[nH]c1=O [VSA 411, 1-(3-F-2,3-dideoxy-α-D-ribofuranosyl)-5-ethyluracil] | 500 | 400
4 | 10 | CCc1cn([C@@H]2C[C@H](O)[C@@H](CO)O2)c(=O)[nH]c1=O [VIP 289, 1-(2-deoxy-α-D-ribofuranosyl)-5-ethyluracil] | 1000 | 
